According to patent US20250340590A1, “PEPTIDE HAVING ANTI-INFLAMMATORY ACTIVITY AND USE THEREOF” (CAREGEN CO., LTD., priority 2021, published 2025):

Tests used:
Format in all cases: cell-based
IFNγ = IFNγ secretion by ELISA in TNFα-induced mouse splenocytes; settings: TNFα 20 nM, 24 hours
Method: (§1) Inflammation was induced by treating mouse splenocytes with the inflammatory cytokine TNFα, and the secretion amounts of the inflammatory cytokines IL-17, IL-1B, and IFNγ were confirmed. IL-17 corresponds to a pro-inflammatory cytokine, and the descriptions of IL-1β and IFNγ are the same as above.
(§2) Mouse splenocytes were dispensed into a 24-well plate at a concentration of 1×10^7 cells/well and cultured until the next day. The medium was replaced with serum-free medium, and after 4 hours, the cells were treated with TNFα and the peptide of the present invention and then cultured again for another 24 hours. In order to induce inflammation, the cells were treated with TNFα at 20 nM, and the peptide at 5 μM and 50 μM, respectively. The mouse splenocytes in the group in which inflammation was not induced due to untreatment with TNFα (NON); the negative control group in which the cells were treated with TNFα but not treated with the peptide (NC); and the group in which the cells were treated with TNFα along with the peptide of the present invention at the same concentration as above, respectively, were reacted as described above and the cell cultures were recovered. […]

IL-1β [1] = experiment: IL-1β mRNA level by RT-PCR in TNFα-induced mouse splenocytes; settings: TNFα 20 nM, peptide at 5 μM and 50 μM, 3 hours, compared to group not treated with the peptide
Method: In order to further confirm the anti-inflammatory effect of the peptide treatment of the present invention in addition to the results of Experimental Example <3-1>, inflammation was induced by treating mouse splenocytes with TNFα, and the expression levels of inflammatory cytokines TNFα and IL-1β, and Cox2, which is an inflammation-inducing marker, genes were confirmed. In order to induce inflammation, the cells were treated with cytokine TNFα, and since TNFα corresponds to a signaling protein associated with inflammation, IL-1β corresponds to a cytokine that promotes inflammation, and Cox2 is a protein associated with inflammation, the degree of inflammation can be confirmed by measuring the expression levels of TNFα, Cox2, and IL-1β genes.
Mouse splenocytes were dispensed into a 24-well plate at a concentration of 1× 10^7 cells/well and cultured until the next day. The medium was replaced with serum-free medium, and after 3 hours, the cells were treated with TNFα and the peptide of the present invention and then cultured for another 3 hours. In order to induce inflammation, the cells were treated with TNFα at 20 nM, and the peptide at 5 μM and 50 μM, respectively. […] After quantifying the amount of isolated RNA, cDNA was synthesized using a cDNA synthesis kit (Intron, Korea), PCR was performed using a PCR premix (Intron, Korea) and primers for TNFα, Cox2, and IL-1B. […]

IL-6 = IL-6 mRNA level by RT-PCR in LPS-induced mouse splenocytes; settings: LPS 2 μg/mL, peptide at 5 μM and 50 μM, 24 hours, compared to group not treated with the peptide
Method: Inflammation was induced in mouse splenocytes, and the expression levels of TNFα, and IL-6 genes, which is the inflammatory cytokines were confirmed. In order to induce inflammation, the cells were treated with LPS, an inflammation-inducing antigen, and since TNFα corresponds to a signaling protein associated with inflammation, and IL-6 corresponds to a cytokine that promotes inflammation, the degree of inflammation can be confirmed by measuring the expression levels of TNFα and IL-6 genes.
Mouse splenocytes were dispensed into a 24-well plate at a concentration of 1×10^7 cells/well and cultured until the next day. The medium was replaced with serum-free medium, and after 3 hours, the cells were treated with LPS and the peptide of the present invention and then cultured again for another 24 hours. In order to induce inflammation, the cells were treated with LPS at 2 μg/mL, and the peptide at […] and 50 μM, respectively. […] After quantifying the amount of isolated RNA, cDNA was synthesized using a cDNA synthesis kit (Intron, Korea), PCR was performed using a PCR premix (Intron, Korea) and primers for TNFα, and IL-6. […]

IL-1β [2] = experiment: IL-1β secretion by ELISA in TNFα-induced mouse splenocytes; settings: TNFα 20 nM, 24 hours
Method: as §1, §2

TWNS [peptide of the present invention]
decreased: secretion amount of IFNγ (IFNγ; peptide at 5 μM) | secretion amount of IFNγ (IFNγ; peptide at 50 μM) | mRNA expression level of IL-1β (IL-1β [1]) | mRNA expression level of IL-6 (IL-6) | secretion amount of IL-1β (IL-1β [2]; peptide at 5 μM) | secretion amount of IL-1β (IL-1β [2]; peptide at 50 μM)
